Two molecules from patent US4075194A, “Novel synthetic undecapeptide and clinical assay” (Yeda Research and Development Co., Ltd., priority 1976, dated 1978) can be followed below.

Ends that are not written are not given here.

The subject of test [1] is antisera agglutinating CEA(1-11)-A--L-coated sheep erythrocytes. As to the kind of experiment: Inhibition of passive hemagglutination. It is filed as binding. The settings on record: serum concentration twice that of the hemagglutination titer. As for the experimental part:
Hemagglutination and Inhibition of Hemagglutination. Sheep erythrocytes were treated with formalin, tanned, and coated with the CEA(1-11) peptide or with the conjugates (CEA(1-11)-A--L or CEA(1-11)-BSA, Herbert: Handbook Exp. Immun., Oxford (1964), 720, Blackwell, Sci. Pub.
Passive microhemagglutination tests, Kabat: Structural Concepts in Immun. and Immunochem. (1968), Holt, Reinhart and Winston, Inc., N.Y., were performed on disposable microtiter plates (Cooke Engineering Co., Alexandira, Va.) by 2-fold serial dilutions of antisera in phosphate-buffered saline (0.15 M NaCl-0.01 M sodium phosphate buffer, pH 7.0), containing 0.1% ovalbumin (twice crystallized, Schwarz/Mann). The plates were incubated at room temperature and read after 2 and 4 hr.
In inhibition experiments serial dilutions of the respective inhibitor were allowed to react for 30 min with the antisera (at the last dilution that had given positive agglutination) prior to the addition of the coated erythrocytes. Inhibition results were also read after 2 and 4 hr.

In another test the test system is anti-CEA(1-11)-BSA serum. As to the kind of experiment: Inhibition of inactivation of CEA(1-11)-T4 by anti-CEA(1-11)-BSA serum. The class given is binding, rabbit. The following applies: for inhibition of the inactivation of CEA(1-11)-T4: in words. As for the experimental part: Inactivation and Inhibition of Inactivation of CEA(1-11)-coated T4 Bacteriophage. The preparation of CEA(1-11)-coated T4 bacteriophage was carried out according to the procedure described by Haimovich et al., Biochim. Biophys. Acta 207 (1970) 115, making use of glutaraldehyde as crosslinking agent. The resulting modified bacteriophage preparation was tested for inactivation with anti-CEA(1-11)-BSA serum, by incubation for 21/2 hr at 37° in the presence of different dilutions of the antiserum, and monitoring the surviving phage by subsequent plating with bacteria.
In inhibition experiments the inhibitors were allowed to react at room temperature, overnight, with the amount of antiserum that would have caused approximately 90% inactivation of the bacteriophage conjugate, Haimovich et al. Biochim. Biophys. Acta 207 (1970) 125. The modified bacteriophage was then added to the mixture and the number of surviving phage was determined as described above. The percentage of inhibition was calculated from the extent of inactivation in the presence and in the absence of the inhibitor.

The nature of test [2]: Immunization of rabbits, antibody production. The settings on record: intradermal in complete Freund's adjuvant, in words. It is filed as in vivo, rabbit. The procedure: Immunization Procedure. Antisera against the CEA(1-11) peptide were obtained by immunizing rabbits with CEA(1-11) as the free peptide and with the two conjugates CEA(1-11)-A--L and CEA(1-11)-BSA. The rabbits were immunized by multisite intradermal injections in complete Freund's adjuvant. Each rabbit received two injections of 4 mg at 2-week intervals and was subsequently bled weekly from the marginal vein, starting 1 week after the last injection.

As for “LNFPTSEITLK [CEA(1-11), synthetic undecapeptide corresponding to the first eleven NH2-terminal residues of CEA, with leucine replacing valine in the 11-position]”, the “lowest concentration of inhibitor that still prevents agglutination” value in test [1] (antiserum against CEA(1-11)-A--L) was determined as 1 µg/mL; in test [1] (antiserum against CEA(1-11)-BSA), 10 µg/mL; in test [1] (antiserum against Crude CEA), 100 µg/mL; in test [1] (antiserum against Pure CEA) it was 1 µg/mL. In addition, the “inhibition of the inactivation of CEA(1-11)-T4” value with anti-CEA(1-11)-BSA serum was “could be inhibited”. For the same molecule, the “Inhibition (%)” value with anti-CEA(1-11)-BSA serum (inhibitor concentration 0.001 μg/ml) came out at 0%; in the test with anti-CEA(1-11)-BSA serum (inhibitor concentration 0.0033 μg/ml), 38%; with anti-CEA(1-11)-BSA serum (inhibitor concentration 0.01 μg/ml), 64%; in the test on anti-CEA(1-11)-BSA serum (inhibitor concentration 0.033 μg/ml), 82%; in the test on anti-CEA(1-11)-BSA serum (inhibitor concentration 0.1 μg/ml), 92%; in the test with anti-CEA(1-11)-BSA serum (inhibitor concentration 0.33 μg/ml) it was 100%. Further, the entries for the “Inhibition (%)” value in the test with anti-CEA(1-11)-BSA serum (inhibitor concentration 1 μg/ml) and with anti-CEA(1-11)-BSA serum (inhibitor concentration 3 μg/ml) were 98% and 100%, respectively. The “antibody production on immunization” value in test [2] is on record as “antisera of low titer”.

B1: Pure CEA: carcinoembryonic antigen purified from colonic tumor tissue by perchloric acid extraction, chromatography and block electrophoresis (protein, UniProt P06731 35-685, looked up)
Cell adhesion molecule CEACAM5: KLTIESTPFNVAEGKEVLLLVHNLPQHLFGYSWYKGERVDGNRQIIGYVIGTQQATPGPAYSGREIIYPNASLLIQNIIQNDTGFYTLHVIKSDLVNEEATGQFRVYPELPKPSISSNNSKPVEDKDAVAFTCEPETQDATYLWWVNNQSLPVSPRLQLSNGNRTLTLFNVTRNDTASYKCETQNPVSARRSDSVILNVLYGPDAPTISPLNTSYRSGENLNLSCHAASNPPAQYSWFVNGTFQQSTQELFIPNITVNNSGSYTCQAHNSDTGLNRTTVTTITVYAEPPKPFITSNNSNPVEDEDAVALTCEPEIQNTTYLWWVNNQSLPVSPRLQLSNDNRTLTLLSVTRNDVGPYECGIQNELSVDHSDPVILNVLYGPDDPTISPSYTYYRPGVNLSLSCHAASNPPAQYSWLIDGNIQQHTQELFISNITEKNSGLYTCQANNSASGHSRTTVKTITVSAELPKPSISSNNSKPVEDKDAVAFTCEPEAQNTTYLWWVNGQSLPVSPRLQLSNGNRTLTLFNVTRNDARAYVCGIQNSVSANRSDPVTLDVLYGPDTPIISPPDSSYLSGANLNLSCHSASNPSPQYSWRINGIPQQHTQVLFIAKITPNNNGTYACFVSNLATGRNNSIVKSITVSASGTSPGLSA
On to B1, for which the “inhibition of the inactivation of CEA(1-11)-T4” value in the test with anti-CEA(1-11)-BSA serum was “No inhibition”.
